Test results from patent US20070054325A1, “Materials and methods for screening modulators of neural regeneration” (REGLIA, priority 2005, published 2007).
Like-named read-outs stand apart in the source and are kept apart here. Values belong to the compound of their own block, whether it stands above or below them. Bridges are numbered along the chain shown (N, C = ends). Where no end group is shown, it is not given here.

Columns and labels:
ETBR = conditions: Rogers et al., Glia 2003, cited from earlier work
C3aR = target: T1, C3aR (Mus musculus, UniProt O09047); test: Basal neurogenesis in mice treated with a C3aR antagonist (BrdU/Dcx/NeuN immunostaining); assay type: in vivo, wild-type C57BL/6 mice; conditions: for number of Dcx^posBrdU^pos cells, lower compared to control mice: 500 μg/mouse twice daily for 10 days
T1 construct: wild-type C57BL/6 mice (8 week old male; n=12) were injected with a nonpeptide antagonist of the C3aR; from tissue; host or cells: living wild-type C57BL/6 mice; read-out in brain (SVZ, dentate gyrus, olfactory bulb)
T1 sequence (O09047 1-477): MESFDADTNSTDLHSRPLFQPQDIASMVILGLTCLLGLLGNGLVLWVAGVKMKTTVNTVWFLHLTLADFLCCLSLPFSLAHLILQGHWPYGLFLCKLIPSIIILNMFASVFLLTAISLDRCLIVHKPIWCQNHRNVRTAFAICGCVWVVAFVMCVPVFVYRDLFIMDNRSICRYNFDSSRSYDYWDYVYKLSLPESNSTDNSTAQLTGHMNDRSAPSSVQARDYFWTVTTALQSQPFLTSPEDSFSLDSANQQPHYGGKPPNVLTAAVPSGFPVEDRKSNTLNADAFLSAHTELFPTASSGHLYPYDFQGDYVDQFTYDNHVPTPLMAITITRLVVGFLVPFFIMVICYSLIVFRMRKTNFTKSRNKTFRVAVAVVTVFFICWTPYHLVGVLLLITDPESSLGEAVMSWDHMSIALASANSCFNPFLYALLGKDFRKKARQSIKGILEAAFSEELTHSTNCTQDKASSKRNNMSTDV
Experimental: To assess whether signaling through the C3aR plays a role in basal neurogenesis, wild-type C57BL/6 mice (8 week old male; n=12) were injected with a nonpeptide antagonist of the C3aR, SB290157 (Calbiochem, San Diego, Calif., USA; 500 μg/mouse; Ames et al., J. Immunol. 166:6341-6348, 2001) diluted in PBS and DMSO (1.16% v/v) twice daily or vehicle for 10 days. Control mice (n=10) were given PBS and DMSO (1.16% v/v). During the first 7 days, all the mice also received bromodeoxyuridine (BrdU) (Sigma-Aldrich; 200 mg/kg). On day 10 after the first injection, the mice were deeply anesthetized and perfused.
Mouse brains were embedded in paraffin, cut into 8-μm sections, and stained with hematoxylin and erytrosin. For immunohistochemical evaluation, the sections were deparaffinized, permeabilized in 0.01 M citric acid (pH 6.0), heated twice for 5 min each in a microwave oven for antigen retrieval, and blocked with 0.1% BSA and 0.05% Triton-X-100 in PBS. Negative control was performed by omitting the primary antibody, unless stated otherwise.
Newly formed neurons were visualized by staining with biotinylated mouse anti-NeuN monoclonal antibody (Chemicon, Temecula, Calif., USA; 1:100) followed by Cy3-conjugated streptavidin (Sigma-Aldrich; 1:100) or Alexa633-conjugated streptavidin (Molecular Probes; 1:500) in combination with FITC-conjugated rat anti-BrdU antibody (Accurate Chemical, Westbury, N.Y., USA; 1:75). NeuN^pos BrdU^pos cells were counted in the penumbra on 2-3 sections per mouse. BrdU^pos cells were also counted in the SVZ. The sections were further stained with mouse anti-BrdU antibody (DAKO; 1:100) and Alexa 568 conjugated goat anti-mouse Ig (Molecular Probes; 1:500). BrdU^pos and NeuN^posBrdU^pos cells were counted in one hemisphere on 4-12 sections 160 μm apart/region in the granular layer of the olfactory bulb (bregma 3.2 mm to 4.28 mm) and dentate gyrus subgranular zone (bregma −1.34 mm to −3.64 mm).
Migrating neural progenitor cells were detected with goat anti-doublecortin (Dcx) antibody (Santa Cruz Biotechnology, Santa Cruz, Calif., USA; 1:50) followed by Alexa488-conjugated donkey anti-goat Ig (Molecular Probes; 1:100). Sections were further stained with mouse anti-BrdU antibody. BrdU^pos and Dcx^posBrdU^pos cells were counted in one hemisphere on 4-12 sections 160 μm apart/region in the SVZ (bregma 0.14 mm to 1.1 mm), the granular layer of the olfactory bulb (bregma 3.2 mm to 4.28 mm), and dentate gyrus subgranular zone (bregma −1.34 mm to −3.64 mm).
Proliferating migrating neuroblasts (Dcx^posBrdU^pos), newly formed neurons (NeuN^posBrdU^pos) and BrdU^pos cells were counted in the two principal sites of adult neurogenesis, SVZ and the dentate gyrus subgranular zone of the hippocampus, as well as in the olfactory bulb, the final destination for the neuroblasts originating in SVZ under basal conditions. In all three regions, the number of Dcx^posBrdU^pos cells was reduced in mice that received the C3aR antagonist. […] Also, the fraction of these cells among the BrdU^pos cells was reduced in the C3aR antagonist-treated mice: 19.0±1.1 vs. 26.7±1.7%, P<0.005 in the olfactory bulb; 13.1±0.6 vs. 17.3±0.8%, P<0.0005 in the dentate gyrus subgranular zone; and 26.4±0.8 vs. 31.4±1.2%, P<0.005 in the SVZ. […] The fraction of these cells among the BrdU^pos cells was reduced in the C3aR antagonist treated mice: 1.2±0.1 vs. 1.7±0.1%, P<0.005 in the olfactory bulb; 1.7±0.1 vs. 2.3±0.2%, P<0.05 in the dentate gyrus subgranular zone. The number of BrdU^pos cells in any of the regions was not affected by the C3aR antagonist treatment.

[1] = test system: Neural stem cells, e.g., HCNA 94/GFPH; test: Neural stem cell differentiation assay (MAP2 immunostaining, DAPI); assay type: cell-based
Experimental: It was previously known that it was possible to modulate cells, other than neurons, via C3aR. Accordingly, C3aR antagonists blocked modulation via the receptor and C3aR agonists stimulated the receptor. To evaluate the effect of C3aR agonists on neural stem cell differentiation in vitro, a neural stem cell differentiation assay was performed as set out below.
Neural stem cells, e.g., HCNA 94/GFPH, were cultured with a C3aR agonist (C3a) at a concentration of either 10 nM or 100 nM for three to ten days in the presence and absence of a known C3aR antagonist, SB290157 (Ames at al., J. Immunol. 166: 6341-6348, 2001), at a concentration of 5-10 μM, administered to the culture either prior to or at the same time as the C3aR agonist. The number of cells that differentiated into neurons was measured by immunostaining with antibodies against MAP2 (Sigma) and visualized using 4′,6-Diamidino-2-phenylindole (DAPI) staining. A compound is regarded as a stimulator of neural stem cell differentiation into neurons if it stimulates differentiation into neurons at a rate at least 25% greater than control cells (cultured in the presence of medium alone). The effect of the C3aR agonist on neural stem cell differentiation was not blocked by SB290157 (see Table 5 below). Thus, SB290157 was not effective in inhibited neuronal cell differentiation at the concentrations tested.

Compound: endothelin 1: endothelin peptide, an ETBR agonist (CSCSSLMDKECVYFCHLDIIW; disulfide 1-15, 3-11; ends not checked; UniProt P05305 53-73, looked up)
effect on astrocyte hypertrophy (ETBR; ETBR agonist administration): leads to astrocyte hypertrophy

Compound: COc1ccccc1Oc1c(NS(=O)(=O)c2ccc(C(C)(C)C)cc2)nc(-c2ncccn2)nc1OCCO [Bosenthan]
effect on astrocyte hypertrophy (ETBR; ETBR antagonist in CNS trauma): reduced astrocyte hypertrophy

number of Dcx^posBrdU^pos cells, lower compared to control mice (C3aR; SVZ, P<0.05): 12.5% | fraction of Dcx^posBrdU^pos cells among the BrdU^pos cells (C3aR; SVZ, control 31.4±1.2%, P<0.005): 26.4±0.8% | number of BrdU^pos cells (C3aR; any of the regions (SVZ, dentate gyrus subgranular zone, olfactory bulb)): not affected | number of Dcx^posBrdU^pos cells, lower compared to control mice (C3aR; dentate gyrus subgranular zone, P<0.0005): 27% | fraction of NeuN^posBrdU^pos cells among the BrdU^pos cells (C3aR; dentate gyrus subgranular zone, control 2.3±0.2%, P<0.05): 1.7±0.1% | fraction of Dcx^posBrdU^pos cells among the BrdU^pos cells (C3aR; dentate gyrus subgranular zone, control 17.3±0.8%, P<0.0005): 13.1±0.6% | reduction in the number of NeuN^posBrdU^pos cells (C3aR; olfactory bulb and dentate gyrus subgranular zone, P<0.005): 22-25% | number of Dcx^posBrdU^pos cells, lower compared to control mice (C3aR; olfactory bulb, P<0.0005): 34% | fraction of NeuN^posBrdU^pos cells among the BrdU^pos cells (C3aR; olfactory bulb, control 1.7±0.1%, P<0.005): 1.2±0.1% | fraction of Dcx^posBrdU^pos cells among the BrdU^pos cells (C3aR; olfactory bulb, control 26.7±1.7%, P<0.005): 19.0±1.1%
Compound: NC(N)=NCCC[C@H](NC(=O)COCC(c1ccccc1)c1ccccc1)C(=O)O [SB290157]
inhibition of the C3aR agonist effect on neural stem cell differentiation ([1]; SB290157 5-10 μM, given prior to or with C3a 10 or 100 nM): not effective | % of MAP2+ Cells Among All DAPI+ Cells (Mean ± SEM) ([1]; SD290157 5 μM alone, culture medium alone 2.54 ± 0.12): 2.70 ± 0.19%
